Data taken from patent US6852689B2, “Methods for administration of antibiotics” (priority 1998, dated 2005).
Values joined by “and” are separate entries in the source; they are usually repeats but may differ in a detail not shown here. Equal entries are not always repeated. Where two headings read alike, the source gives them in different places.

Experiments:
rats = details: rat, in vivo, iv, 75 mg/kg/day; cited from earlier work
dogs [1] = details: dog, in vivo, iv, 40 mg/kg/day; cited from earlier work
[2] = human, in vivo
[3] = cited from earlier work
dogs [4] = experiment: Study A: skeletal muscle toxicity (serum CPK, microscopic myopathy) after repeated intravenous dosing; details: for Diaphragm myofiber degeneration, sites affected/sites examined / Heart myofiber degeneration, sites affected/sites examined / Skeletal muscle myofiber degeneration, sites affected/sites examined / Skeletal muscle myofiber regeneration, sites affected/sites examined: iv 20 days
Experimental: (§1) Skeletal muscle toxicity was measured in dogs by increases in CPK levels to above the normal range and by microscopic changes in skeletal tissue.
Treated animals were sacrificed at approximately one dosing interval after the last dose and muscle tissue was microscopically examined for indications of myopathy.

gram-positive bacteria = details: cited from earlier work
human patients = experiment: Clinical study (Example 4): serum CPK and skeletal muscle effects in hospitalized adult subjects with gram-positive infections; format: in vivo
Experimental: In order to study whether an increased dosing interval would prevent transient skeletal muscle toxicity in patients, daptomycin was administered intravenously to hospitalized adult subjects with serious gram-positive bacteremia or with a variety of infections due to gram-positive bacteria that was resistant to vancomycin or who were otherwise refractory to, or contraindicated for, currently available therapy. The subjects were treated for a period of 7-21 days. Serum CPK levels were determined prior to first antibiotic treatment and every other day for the first seven days of treatment, and daily thereafter.

[5] = Study B: steady state plasma concentrations of daptomycin on day 18 by HPLC
Experimental: In order to study the effects of threshold plasma concentration on skeletal muscle toxicity, dogs (4 male dogs/group) were administered dose regimens of saline q8h, daptomycin 5 mg/kg q24h (approximate NOELq24h) and daptomycin 5 mg/kg q8h intravenously for 20 days.
As in Example 1, steady state plasma concentrations of daptomycin on day 18 of dosing were determined by HPLC.

[6] = system: human volunteers and patients; details: in vivo, cited from earlier work
[7] = Study A: steady state plasma concentrations of daptomycin on day 18 by HPLC; details: dogs
Experimental: as §1
Steady state plasma concentrations of daptomycin on day 18 of dosing were determined by HPLC.

dogs [8] = experiment: Study B: skeletal muscle toxicity (serum CPK, microscopic myopathy) after repeated intravenous dosing; format: in vivo, dog
Experimental: Serum CPK levels were determined as disclosed in Example 1. […] In contrast, CPK levels at 5 mg/kg q8h were elevated compared to 5 mg/kg q24h or saline controls.

CCCCCCCCCC(=O)N[C@@H](Cc1c[nH]c2ccccc12)C(=O)N[C@H](CC(N)=O)C(=O)N[C@@H](CC(=O)O)C(=O)N[C@@H]1C(=O)NCC(=O)N[C@@H](CCCN)C(=O)N[C@@H](CC(=O)O)C(=O)N[C@H](C)C(=O)N[C@@H](CC(=O)O)C(=O)NCC(=O)N[C@H](CO)C(=O)N[C@@H]([C@H](C)CC(=O)O)C(=O)N[C@@H](CC(=O)c2ccccc2N)C(=O)O[C@@H]1C [daptomycin]
Skeletal muscle finding (rats): mild myopathy | Skeletal muscle finding (dogs [1]): mild myopathy | Predicted Cmax ([2]; 4 mg/kg): 69.2 µg/mL | Predicted Cmax ([2]; 6 mg/kg): 86.8 µg/mL | Plasma protein binding [3]: high | Increases in serum CPK correlating with minimal skeletal myofiber degeneration (dogs [4]; dog, in vivo): three- to 25 | Microscopic effect on heart muscle (dogs [4]; dog, in vivo): No microscopic degenerative effect | Time of CPK peak during treatment (dogs [4]; dog, in vivo): approximately 1 week | Increase in CPK levels (dogs [4]; dog, in vivo, 25 mg/kg): greater than 10 fold | Incidence of Microscopic Myopathy (sites with minimal degenerative changes/sites examined) (dogs [4]; dog, in vivo, iv, 75 mg/kg): 8/28 | Peak CPK (dogs [4]; dog, in vivo, iv, 75 mg/kg): 990 U/L | Increase in toxicity as measured by incidence of microscopic myopathy (dogs [4]; dogs, 25 mg/kg three times a day compared to once daily): 5 fold | Diaphragm myofiber degeneration, sites affected/sites examined (dogs [4]; dogs, 25 mg/kg q8h): 1/4 | Heart myofiber degeneration, sites affected/sites examined (dogs [4]; dogs, 25 mg/kg q8h): 0/4 | Skeletal muscle myofiber degeneration, sites affected/sites examined (dogs [4]; dogs, 25 mg/kg q8h): 14/24 | Skeletal muscle myofiber regeneration, sites affected/sites examined (dogs [4]; dogs, 25 mg/kg q8h): 9/24 | Diaphragm myofiber degeneration, sites affected/sites examined (dogs [4]; dogs, 25 mg/kg q24h): 0/4 | Heart myofiber degeneration, sites affected/sites examined (dogs [4]; dogs, 25 mg/kg q24h): 0/4 | Skeletal muscle myofiber degeneration, sites affected/sites examined (dogs [4]; dogs, 25 mg/kg q24h): 3/24 | Skeletal muscle myofiber regeneration, sites affected/sites examined (dogs [4]; dogs, 25 mg/kg q24h): 2/24 | Diaphragm myofiber degeneration, sites affected/sites examined (dogs [4]; dogs, 75 mg/kg q24h): 0/4 | Heart myofiber degeneration, sites affected/sites examined (dogs [4]; dogs, 75 mg/kg q24h): 0/4 | Skeletal muscle myofiber degeneration, sites affected/sites examined (dogs [4]; dogs, 75 mg/kg q24h): 8/24 | Skeletal muscle myofiber regeneration, sites affected/sites examined (dogs [4]; dogs, 75 mg/kg q24h): 1/24 | MIC of certain vancomycin-resistant strains relative to most vancomycin-susceptible strains (gram-positive bacteria): two- to four-fold | MIC relative to that of vancomycin (gram-positive bacteria; susceptible strains, typical): 4 fold lower | Muscular pain or weakness (human patients; human, in vivo): None of the patients experienced any muscular pain or weakness | Total Number of Patients with Presumed Drug-Related Adverse Skeletal Muscle Effects/Total Evaluated (human patients; iv 7-21 days, 4 mg/kg q24h): 0/8 | Total Number of Patients with Presumed Drug-Related Adverse Skeletal Muscle Effects/Total Evaluated (human patients; iv 7-21 days, 6 mg/kg q24h, 6 mg/kg): zero of nine and 0/9 | Total Number of Patients with Presumed Drug-Related Adverse Skeletal Muscle Effects/Total Evaluated (human patients; iv, 6 mg/kg followed by 3 mg/kg q12h): 0/3 | half-life ([5]; dog, in vivo): 150 min | Time below 10 μg/mL plasma concentration ([5]; dogs, 5 mg/kg q8h): 6 h | AUC ratio ([5]; dogs, 5 mg/kg q8h compared to 5 mg/kg q24h): 2.6 fold higher | Time below 10 μg/mL plasma concentration ([5]; dogs, 5 mg/kg q24h): 18 h | Adverse effects ([6]; 3 mg/kg): occasional adverse effects | Patients with transient muscular weakness and pain ([6]; 4 mg/kg): two of five | Cmax ratio ([7]; 25 mg/kg q8h compared to 25 mg/kg q24h): 1.23 fold higher | AUC ratio ([7]; 25 mg/kg q8h compared to 75 mg/kg q24h): 0.37 fold higher | Time with plasma concentration below 27 μg/mL before next dose ([7]; 75 mg/kg q24h): approximately 12 hours | Cmax ratio ([7]; 75 mg/kg q24h compared to 25 mg/kg q8h): approximately 2.8 fold higher | Effect on heart muscle (dogs [8]; dog, in vivo): No degenerative effect | Increases in CPK levels correlating with very minimal myofiber degeneration (dogs [8]; dog, in vivo): zero- to four-fold | Heart myofiber degeneration, sites affected/sites examined (dogs [8]; dog, in vivo, iv, 5 mg/kg): 0/4 | NOEL (dogs [8]; dogs, q24h dosing interval): approximately 5 mg/kg
